In US20120225062A1 (priority 2011, published 2012) one finds EC50 and IC50 data, which are given here for 19 molecules.

Usually EC50 stands for the concentration at which the effect is half-maximal. As a reminder, the IC50 is the midpoint of a concentration-inhibition curve. High values mean weaker potency, low ones greater potency.

The subject of test [1] is KMS11 (human myeloma cell line). Nature of the test: Cell Proliferation Assay (CellTiter-Glo, 3 days). Conditions: KMS-11, 72 h, KMS11-luc cells. It is filed as cell-based. The method, boiled down: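 EC50 from CellTiter-Glo luminescence after 3-day, 37° C compound treatment of KMS11 cells seeded at 2000 per well in IMDM plus 10% FBS.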
The next test addresses Pim 1 (Homo sapiens, UniProt P11309). Description: Pim 1 AlphaScreen assay (high ATP).
Another test concerns the target Pim 2 (Homo sapiens, UniProt Q9P1W9). Description: Pim 2 AlphaScreen assay (high ATP). (In general: Bead proximity is the source of the signal in Alpha formats.)
The target of a further test is Pim 3 (Homo sapiens, UniProt Q86V86). Nature of the test: Pim 3 AlphaScreen assay (high ATP).

Chain of Pim 2 (Q9P1W9 whole entry): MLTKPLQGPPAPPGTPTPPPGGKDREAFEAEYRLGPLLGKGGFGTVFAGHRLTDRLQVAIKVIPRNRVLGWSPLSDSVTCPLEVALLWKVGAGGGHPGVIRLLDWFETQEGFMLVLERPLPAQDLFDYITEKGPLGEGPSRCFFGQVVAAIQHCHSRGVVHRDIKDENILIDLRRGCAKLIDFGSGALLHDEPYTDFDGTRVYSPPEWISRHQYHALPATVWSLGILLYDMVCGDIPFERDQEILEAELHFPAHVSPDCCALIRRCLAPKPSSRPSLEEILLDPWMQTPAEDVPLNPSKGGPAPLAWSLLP
Chain of Pim 1 (P11309 whole entry): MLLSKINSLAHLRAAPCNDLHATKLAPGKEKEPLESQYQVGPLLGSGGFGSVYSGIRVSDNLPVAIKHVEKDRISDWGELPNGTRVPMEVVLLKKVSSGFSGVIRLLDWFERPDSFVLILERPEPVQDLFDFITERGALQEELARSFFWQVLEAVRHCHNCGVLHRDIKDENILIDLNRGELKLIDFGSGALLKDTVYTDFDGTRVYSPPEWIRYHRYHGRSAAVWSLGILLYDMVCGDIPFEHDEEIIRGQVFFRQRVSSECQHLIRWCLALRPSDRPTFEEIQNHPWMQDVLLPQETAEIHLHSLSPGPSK

Consider `C[C@H]1C[C@@H](c2ccncc2NC(=O)c2ccc(F)c(-c3c(F)cc(OCCO)cc3F)n2)C[C@@H](N)[C@@H]1O` [Example 32, N-(4-((1R,3R,4R,5S)-3-amino-4-hydroxy-5-methylcyclohexyl)pyridin-3-yl)-6-(2,6-difluoro-4-(2-hydroxyethoxy)phenyl)-5-fluoropicolinamide], for which a half-maximal response in test [1] (EC50) required 52 nM. For the same molecule, the IC50 against Pim 1 stood at 0.06 nM; at Pim 2, 4.76 nM; against Pim 3, 1.9 nM.

For the molecule `C[C@@H]1C[C@H](N)C[C@H](c2ccncc2NC(=O)c2ccc(F)c(-c3c(F)cc(CC(C)(C)O)cc3F)n2)C1` [Example 84, N-(4-((1R,3S,5S)-3-amino-5-methylcyclohexyl)pyridin-3-yl)-6-(2,6-difluoro-4-(2-hydroxy-2-methylpropyl)phenyl)-5-fluoropicolinamide], in test [1], the midpoint of the response, the EC50, lay at 29 nM. Moreover, the IC50 worked out at 0.02 nM at Pim 1, 1.48 nM against Pim 2 and 0.52 nM on Pim 3.

Turning to `CCOC(C)(C)c1cc(F)c(-c2nc(C(=O)Nc3cnccc3[C@H]3C[C@@H](N)[C@H](O)[C@@H](C)C3)ccc2F)c(F)c1` [Example 146, N-(4-((1R,3R,4R,5S)-3-amino-4-hydroxy-5-methylcyclohexyl)pyridin-3-yl)-6-(4-(2-ethoxypropan-2-yl)-2,6-difluorophenyl)-5-fluoropicolinamide], the EC50 in test [1] turned out to be 526 nM. The figures for the half-inhibitory concentration (IC50) against Pim 1, against Pim 2 and against Pim 3 were 0.09 nM, 5.58 nM and 6.34 nM, respectively.

Molecule `C[C@H]1C[C@@H](c2ccncc2NC(=O)c2ccc(F)c(-c3c(F)ccc(OCCO)c3F)n2)C[C@@H](N)[C@@H]1O` [Example 30, N-(4-((1R,3R,4R,5S)-3-amino-4-hydroxy-5-methylcyclohexyl)pyridin-3-yl)-6-(2,6-difluoro-3-(2-hydroxyethoxy)phenyl)-5-fluoropicolinamide] registered an EC50 in test [1] of 186 nM. In addition, the results for the IC50 on Pim 1, at Pim 2 and against Pim 3 were 0.07 nM, 11.4 nM and 2.25 nM, respectively.

In test [1], `C[C@@H]1C[C@H](N)C[C@H](c2ccncc2NC(=O)c2ccc(F)c(-c3c(F)cc(O[C@H]4CCCOC4)cc3F)n2)C1` [Example 79, N-(4-((1R,3S,5S)-3-amino-5-methylcyclohexyl)pyridin-3-yl)-6-(2,6-difluoro-4-((S)-tetrahydro-2H-pyran-3-yloxy)phenyl)-5-fluoropicolinamide] showed an EC50 of 12 nM. Moreover, the results for the IC50 against Pim 1, at Pim 2 and against Pim 3 were 0.01 nM, 1.08 nM and 0.24 nM, respectively.

In the case of `C[C@H]1C[C@@H](c2ccncc2NC(=O)c2ccc(F)c(-c3c(F)cc(OCC4(C#N)CCOCC4)cc3F)n2)C[C@@H](N)[C@@H]1O` [Example 186, N-(4-((1R,3R,4R,5S)-3-amino-4-hydroxy-5-methylcyclohexyl)pyridin-3-yl)-6-(4-((4-cyanotetrahydro-2H-pyran-4-yl)methoxy)-2,6-difluorophenyl)-5-fluoropicolinamide], in test [1], the EC50 is 527 nM. Further, the IC50 at Pim 1 came to 0.04 nM; against Pim 2, 3 nM; against Pim 3 it was 1.32 nM.

In test [1], `CCOCCOc1cc(F)c(-c2nc(C(=O)Nc3cnccc3[C@H]3C[C@@H](N)[C@H](O)[C@@H](C)C3)ccc2F)c(F)c1` [Example 141, N-(4-((1R,3R,4R,5S)-3-amino-4-hydroxy-5-methylcyclohexyl)pyridin-3-yl)-6-(4-(2-ethoxyethoxy)-2,6-difluorophenyl)-5-fluoropicolinamide] had an EC50 of 2510 nM. The IC50 on Pim 1 came to 0.45 nM; against Pim 2 it was 37.4 nM; against Pim 3, 16 nM.

Consider `CC(C)[C@@H]1C[C@H](N)C[C@H](c2ccncc2NC(=O)c2ccc(F)c(-c3c(F)cc(C4(O)CCC4)cc3F)n2)C1` [Example 133, N-(4-((1R,3S,5S)-3-amino-5-isopropylcyclohexyl)pyridin-3-yl)-6-(2,6-difluoro-4-(1-hydroxycyclobulyl)phenyl)-5-fluoropicolinamide], for which the EC50 in test [1] was 31 nM. The IC50 against Pim 1 was determined as 0.02 nM; at Pim 2, 1.77 nM; against Pim 3, 0.7 nM.

In test [1], `CCC(=O)c1cc(F)c(-c2nc(C(=O)Nc3cnccc3N3C[C@@H](N)[C@H](O)[C@@H](C)C3)ccc2F)c(F)c1` [Example 104, N-(4-((3R,4R,5S)-3-amino-4-hydroxy-5-methylpiperidin-1-yl)pyridin-3-yl)-6-(2,6-difluoro-4-propionylphenyl)-5-fluoropicolinamide] showed an EC50 of 19 nM. Moreover, the half-maximal inhibitory concentration (IC50) is 0.02 nM on Pim 1, 0.95 nM against Pim 2 and 0.45 nM against Pim 3.

`COC(C)(C)COc1cc(F)c(-c2nc(C(=O)Nc3cnccc3[C@H]3C[C@@H](N)[C@H](O)[C@@H](C)C3)ccc2F)c(F)c1` [Example 45, N-(4-((1R,3R,4R,5S)-3-amino-4-hydroxy-5-methylcyclohexyl)pyridin-3-yl)-6-(2,6-difluoro-4-(2-methoxy-2-methylpropoxy)phenyl)-5-fluoropicolinamide] returned a half-maximal effective concentration (EC50) in test [1] of 49 nM. Besides, the IC50 at Pim 1 was 0.03 nM; against Pim 2, 3.15 nM; against Pim 3, 1.13 nM.

Turning to `C[C@@H]1C[C@H](N)C[C@H](c2ccncc2NC(=O)c2ccc(F)c(-c3c(F)cc(OCCN4CCCC4=O)cc3F)n2)C1` [Example 132, N-(4-((1R,3S,5S)-3-amino-5-methylcyclohexyl)pyridin-3-yl)-6-(2,6-difluoro-4-(2-(2-oxopyrrolidin-1-yl)ethoxy)phenyl)-5-fluoropicolinamide], the EC50 in test [1] was 206 nM. Also, the IC50 came to 0.02 nM against Pim 1, 4.78 nM against Pim 2 and 1.1 nM on Pim 3.

`COCc1cc(F)c(-c2nc(C(=O)Nc3cnccc3N3C[C@@H](N)[C@H](O)[C@@H](C)C3)ccc2F)c(F)c1` [Example 38, N-(4-((3R,4R,5S)-3-amino-4-hydroxy-5-methylpiperidin-1-yl)pyridin-3-yl)-6-(2,6-difluoro-4-(methoxymethyl)phenyl)-5-fluoropicolinamide] gave an EC50 in test [1] of 10 nM. Moreover, the IC50 turned out to be 0.03 nM against Pim 1, 1.35 nM against Pim 2 and 0.47 nM against Pim 3.

Molecule `COCCOc1cc(F)c(-c2nc(C(=O)Nc3cnccc3[C@H]3C[C@@H](N)[C@H](O)[C@@H](C)C3)c(N)cc2F)c(F)c1` [Example 120, 3-amino-N-(4-((1R,3R,4R,5S)-3-amino-4-hydroxy-5-methylcyclohexyl)pyridin-3-yl)-6-(2,6-difluoro-4-(2-methoxyethoxy)phenyl)-5-fluoropicolinamide] had an EC50 in test [1] of 32 nM. The concentration for half-maximal inhibition (IC50) on Pim 1 amounted to 0.03 nM; on Pim 2 it was 3.78 nM; on Pim 3, 0.51 nM.

In test [1], `C[C@H]1CN(c2ccncc2NC(=O)c2ccc(F)c(-c3c(F)cc(CCO)cc3F)n2)C[C@@H](N)[C@@H]1O` [Example 35, N-(4-((3R,4R,5S)-3-amino-4-hydroxy-5-methylpiperidin-1-yl)pyridin-3-yl)-6-(2,6-difluoro-4-(2-hydroxyethyl)phenyl)-5-fluoropicolinamide] registered an EC50 of 7 nM. Moreover, the IC50 at Pim 1 is 0.03 nM; at Pim 2, 1.09 nM; on Pim 3, 0.36 nM.

With `C[C@H]1C[C@@H](c2ccncc2NC(=O)c2nc(-c3c(F)cc(C4COC4)cc3F)c(F)cc2N)C[C@@H](N)[C@@H]1O` [Example 98, 3-amino-N-(4-((1R,3R,4R,5S)-3-amino-4-hydroxy-5-methylcyclohexyl)pyridin-3-yl)-6-(2,6-difluoro-4-(oxetan-3-yl)phenyl)-5-fluoropicolinamide], in test [1], the EC50 is 40 nM. The results for the IC50 against Pim 1, at Pim 2 and against Pim 3 were 0.03 nM, 1.38 nM and 0.53 nM, respectively.

On to `CCOc1cc(F)c(-c2nc(C(=O)Nc3cnccc3N3C[C@@H](N)[C@H](O)[C@@H](C)C3)ccc2F)c(F)c1` [Example 20, N-(4-((3R,4R,5S)-3-amino-4-hydroxy-5-methylpiperidin-1-yl)pyridin-3-yl)-6-(4-ethoxy-2,6-difluorophenyl)-5-fluoropicolinamide], for which a half-maximal effect in test [1] (EC50) was put at 7 nM. The IC50 at Pim 1 was 0.02 nM; on Pim 2 it was 0.97 nM; against Pim 3, 0.29 nM.

Take `COc1cc(F)c(-c2nc(C(=O)Nc3cnccc3N3C[C@@H](N)[C@H](O)[C@@H](C)C3)ccc2F)c(F)c1` [Example 15, N-(4-((3R,4R,5S)-3-amino-4-hydroxy-5-methylpiperidin-1-yl)pyridin-3-yl)-6-(2,6-difluoro-4-methoxyphenyl)-5-fluoropicolinamide]: the EC50 in test [1] amounted to 21 nM. Moreover, the IC50 was 0.02 nM against Pim 1, 1.14 nM against Pim 2 and 0.35 nM against Pim 3.

In turn, `N[C@H]1CCC[C@@H](c2ccncc2NC(=O)c2ccc(F)c(-c3c(F)cc(COC4CCOCC4)cc3F)n2)C1` [Example 154, N-(4-((1R,3S)-3-aminocyclohexyl)pyridin-3-yl)-6-(2,6-difluoro-4-((tetrahydro-2H-pyran-4-yloxy)methyl)phenyl)-5-fluoropicolinamide] registered an EC50 in test [1] of 492 nM. Moreover, the IC50 at Pim 1 came to 0.1 nM; against Pim 2 it was 32 nM; against Pim 3, 5.22 nM.

As to `C[C@H]1C[C@@H](c2ccncc2NC(=O)c2ccc(F)c(-c3c(F)cc4c(c3F)OCC[C@]4(C)O)n2)C[C@@H](N)[C@@H]1O` [Example 237, N-(4-((1R,3R,4R,5S)-3-amino-4-hydroxy-5-methylcyclohexyl)pyridin-3-yl)-6-((S)-6,8-difluoro-4-hydroxy-4-methylchroman-7-yl)-5-fluoropicolinamide], the EC50 in test [1] is 181 nM. The concentration for half-maximal inhibition (IC50) against Pim 1 was determined as 0.25 nM; against Pim 2 it was 14.2 nM; at Pim 3 it was 16 nM.
